Reference: PubChem BioAssay (NCI)
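Compound exposure: 48 hours, 5 concentrations, 96-well plates. At the GI50, growth is halved. TGI is the concentration that stops growth completely.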

Experiments:
Experiment in all cases: DTP human tumour cell line panel, 48 h; in the data active means GI50 below about 0.43 µM; inactive means the rest
LOX IMVI melanoma = test system: LOX IMVI melanoma
COLO 205 colon = test system: COLO 205 colon
UO-31 renal = test system: UO-31 renal
MALME-3M melanoma = test system: MALME-3M melanoma
UACC-62 melanoma = test system: UACC-62 melanoma
M14 melanoma = test system: M14 melanoma
MDA-MB-435 = test system: MDA-MB-435
SNB-19 CNS = test system: SNB-19 CNS
SK-OV-3 ovarian = test system: SK-OV-3 ovarian
U251 CNS = test system: U251 CNS
SF-295 CNS = test system: SF-295 CNS
HOP-92 NSCLC = test system: HOP-92 NSCLC
UACC-257 melanoma = test system: UACC-257 melanoma
T-47D breast = test system: T-47D breast
NCI-H226 lung = test system: NCI-H226 lung
HS 578T breast = test system: HS 578T breast
RXF 393 renal = test system: RXF 393 renal
NCI/ADR-RES ovarian = test system: NCI/ADR-RES ovarian
SK-MEL-5 melanoma = test system: SK-MEL-5 melanoma
PC-3 prostate = test system: PC-3 prostate
IGROV1 ovarian = test system: IGROV1 ovarian
A549 NSCLC = test system: A549 NSCLC
SNB-75 CNS = test system: SNB-75 CNS
RPMI-8226 leukemia = test system: RPMI-8226 leukemia
OVCAR-8 ovarian = test system: OVCAR-8 ovarian
K-562 leukemia = test system: K-562 leukemia
HOP-62 NSCLC = test system: HOP-62 NSCLC
BT-549 breast = test system: BT-549 breast
EKVX NSCLC = test system: EKVX NSCLC
786-0 renal = test system: 786-0 renal
HCC-2998 colon = test system: HCC-2998 colon
SF-268 CNS = test system: SF-268 CNS
CAKI-1 renal = test system: CAKI-1 renal
HT29 colon = test system: HT29 colon
SF-539 CNS = test system: SF-539 CNS
MDA-MB-231 breast = test system: MDA-MB-231 breast
SN12C renal = test system: SN12C renal
MCF7 breast = test system: MCF7 breast
OVCAR-4 ovarian = test system: OVCAR-4 ovarian
CCRF-CEM leukemia = test system: CCRF-CEM leukemia
NCI-H460 lung = test system: NCI-H460 lung
ACHN renal = test system: ACHN renal
SK-MEL-2 melanoma = test system: SK-MEL-2 melanoma
SR leukemia = test system: SR leukemia
DU-145 prostate = test system: DU-145 prostate
SK-MEL-28 melanoma = test system: SK-MEL-28 melanoma
OVCAR-3 ovarian = test system: OVCAR-3 ovarian
SW-620 colon = test system: SW-620 colon
OVCAR-5 ovarian = test system: OVCAR-5 ovarian
HCT-116 colon = test system: HCT-116 colon
KM12 colon = test system: KM12 colon
HL-60(TB) leukemia = test system: HL-60(TB) leukemia
TK-10 renal = test system: TK-10 renal
NCI-H522 lung = test system: NCI-H522 lung
NCI-H23 lung = test system: NCI-H23 lung
A498 renal = test system: A498 renal
MOLT-4 leukemia = test system: MOLT-4 leukemia
HCT-15 colon = test system: HCT-15 colon

O=C1CCC(N2Cc3cc(CNC(=O)C(F)(F)c4ccc(Cl)cc4)ccc3C2=O)C(=O)N1 (centres undefined)
active: GI50 (UO-31 renal) 0.32 µM | GI50 (MALME-3M melanoma) 0.105 µM | GI50 (HOP-92 NSCLC) 0.0741 µM | GI50 (SNB-75 CNS) 0.152 µM | GI50 (OVCAR-8 ovarian) 0.243 µM | GI50 (BT-549 breast) 0.237 µM | GI50 (MDA-MB-231 breast) 0.0679 µM | GI50 (CCRF-CEM leukemia) < 0.0156 µM | GI50 (SW-620 colon) 0.11 µM | GI50 (HL-60(TB) leukemia) < 0.01 µM | GI50 (MOLT-4 leukemia) 0.0148 µM
> 100 µM: TGI (LOX IMVI melanoma) | TGI (COLO 205 colon) | TGI (UO-31 renal) | TGI (UACC-62 melanoma) | TGI (M14 melanoma) | TGI (MDA-MB-435) | TGI (SNB-19 CNS) | TGI (SK-OV-3 ovarian) | TGI (U251 CNS) | TGI (SF-295 CNS) | TGI (HOP-92 NSCLC) | TGI (UACC-257 melanoma) | TGI (T-47D breast) | TGI (NCI-H226 lung) | TGI (HS 578T breast) | TGI (RXF 393 renal) | TGI (NCI/ADR-RES ovarian) | TGI (SK-MEL-5 melanoma) | TGI (PC-3 prostate) | TGI (IGROV1 ovarian) | TGI (A549 NSCLC) | TGI (SNB-75 CNS) | TGI (RPMI-8226 leukemia) | TGI (OVCAR-8 ovarian) | TGI (K-562 leukemia) | TGI (HOP-62 NSCLC) | TGI (EKVX NSCLC) | TGI (786-0 renal) | TGI (HCC-2998 colon) | TGI (SF-268 CNS) | TGI (CAKI-1 renal) | TGI (HT29 colon) | TGI (SF-539 CNS) | TGI (MDA-MB-231 breast) | TGI (SN12C renal) | TGI (MCF7 breast) | TGI (OVCAR-4 ovarian) | TGI (NCI-H460 lung) | TGI (ACHN renal) | TGI (SK-MEL-2 melanoma) | TGI (SR leukemia) | TGI (DU-145 prostate) | TGI (SK-MEL-28 melanoma) | TGI (OVCAR-3 ovarian) | TGI (SW-620 colon) | TGI (OVCAR-5 ovarian) | TGI (HCT-116 colon) | TGI (KM12 colon) | TGI (TK-10 renal) | TGI (NCI-H522 lung) | TGI (NCI-H23 lung) | TGI (A498 renal) | TGI (HCT-15 colon)
inactive: GI50 (LOX IMVI melanoma) > 100 µM | GI50 (COLO 205 colon) 0.721 µM | GI50 (UACC-62 melanoma) > 100 µM | GI50 (M14 melanoma) 38.4 µM | GI50 (MDA-MB-435) > 100 µM | GI50 (SNB-19 CNS) > 87.1 µM | GI50 (SK-OV-3 ovarian) > 100 µM | GI50 (U251 CNS) > 100 µM | GI50 (SF-295 CNS) > 100 µM | GI50 (UACC-257 melanoma) > 100 µM | GI50 (T-47D breast) 0.442 µM | GI50 (NCI-H226 lung) 1.75 µM | GI50 (HS 578T breast) 1.71 µM | GI50 (RXF 393 renal) 19 µM | GI50 (NCI/ADR-RES ovarian) 29.2 µM | GI50 (SK-MEL-5 melanoma) 41.6 µM | GI50 (PC-3 prostate) 4.71 µM | GI50 (IGROV1 ovarian) 1.78 µM | GI50 (A549 NSCLC) > 100 µM | GI50 (RPMI-8226 leukemia) > 54.7 µM | GI50 (K-562 leukemia) > 96.3 µM | GI50 (HOP-62 NSCLC) 3.02 µM | GI50 (EKVX NSCLC) > 100 µM | GI50 (786-0 renal) > 100 µM | GI50 (HCC-2998 colon) 14 µM | GI50 (SF-268 CNS) > 100 µM | GI50 (CAKI-1 renal) 40.5 µM | GI50 (HT29 colon) > 100 µM | GI50 (SF-539 CNS) > 100 µM | GI50 (SN12C renal) > 100 µM | GI50 (MCF7 breast) > 100 µM | GI50 (OVCAR-4 ovarian) 1.48 µM | GI50 (NCI-H460 lung) > 100 µM | GI50 (ACHN renal) > 100 µM | GI50 (SK-MEL-2 melanoma) > 100 µM | GI50 (SR leukemia) 54.1 µM | GI50 (DU-145 prostate) > 100 µM | GI50 (SK-MEL-28 melanoma) > 100 µM | GI50 (OVCAR-3 ovarian) > 100 µM | GI50 (OVCAR-5 ovarian) > 100 µM | GI50 (HCT-116 colon) > 100 µM | GI50 (KM12 colon) 67.1 µM | GI50 (TK-10 renal) > 100 µM | GI50 (NCI-H522 lung) > 66.1 µM | GI50 (NCI-H23 lung) > 100 µM | GI50 (A498 renal) 8.17 µM | GI50 (HCT-15 colon) 0.511 µM
> 27.9 µM: TGI (MALME-3M melanoma)
> 74.2 µM: TGI (BT-549 breast)
0.03 µM: TGI (HL-60(TB) leukemia)
